# Active and inactive are the calls of the source. The rule behind the calls is not given here.
# Test system: CCRIS mutagenicity, Ames/micronucleus/aberration tests
# Test: CCRIS mutagenicity studies
structure (smiles),measurement,setting,value
CC(=O)Oc1ccccc1C(=O)O,mutagenic call,"End Point: IN VITRO MICRONUCLEUS, Test System: CHL/IU CELLS, Metabolic Activation: NONE",active; positive
same,mutagenic call,"End Point: IN VITRO MICRONUCLEUS, Test System: RAT KIDNEY FIBROBLAST NRK-49F, Metabolic Activation: NONE",inactive; negative
same,mutagenic call,"Test System: AMES SALMONELLA TYPHIMURIUM, Strain/Indicator: TA97, Metabolic Activation: HAMSTER, LIVER, S-9, AROCLOR 1254 (10%), Method: PREINCUBATION",inactive; negative
same,mutagenic call,"Test System: AMES SALMONELLA TYPHIMURIUM, Strain/Indicator: TA97, Metabolic Activation: HAMSTER, LIVER, S-9, AROCLOR 1254 (30%), Method: PREINCUBATION",inactive; negative
same,mutagenic call,"Test System: AMES SALMONELLA TYPHIMURIUM, Strain/Indicator: TA97, Metabolic Activation: NONE, Method: PREINCUBATION",inactive; negative
same,mutagenic call,"Test System: AMES SALMONELLA TYPHIMURIUM, Strain/Indicator: TA97, Metabolic Activation: RAT, LIVER, S-9, AROCLOR 1254 (10%), Method: PREINCUBATION",inactive; negative
same,mutagenic call,"Test System: AMES SALMONELLA TYPHIMURIUM, Strain/Indicator: TA97, Metabolic Activation: RAT, LIVER, S-9, AROCLOR 1254 (30%), Method: PREINCUBATION",inactive; negative
same,mutagenic call,"Test System: AMES SALMONELLA TYPHIMURIUM, Strain/Indicator: TA98, Metabolic Activation: GUINEA PIG, LIVER, S-9, PCB, Method: PREINCUBATION",inactive; negative
same,mutagenic call,"Test System: AMES SALMONELLA TYPHIMURIUM, Strain/Indicator: TA98, Metabolic Activation: HAMSTER, LIVER, S-9, AROCLOR 1254 (10%), Method: PREINCUBATION",inactive; negative
same,mutagenic call,"Test System: AMES SALMONELLA TYPHIMURIUM, Strain/Indicator: TA98, Metabolic Activation: HAMSTER, LIVER, S-9, AROCLOR 1254 (30%), Method: PREINCUBATION",inactive; negative
same,mutagenic call,"Test System: AMES SALMONELLA TYPHIMURIUM, Strain/Indicator: TA98, Metabolic Activation: HAMSTER, LIVER, S-9, AROCLOR 1254, Method: STANDARD PLATE",inactive; negative
same,mutagenic call,"Test System: AMES SALMONELLA TYPHIMURIUM, Strain/Indicator: TA98, Metabolic Activation: HAMSTER, LIVER, S-9, PCB, Method: PREINCUBATION",inactive; negative
same,mutagenic call,"Test System: AMES SALMONELLA TYPHIMURIUM, Strain/Indicator: TA98, Metabolic Activation: MOUSE, LIVER, S-9, AROCLOR 1254, Method: STANDARD PLATE",inactive; negative
same,mutagenic call,"Test System: AMES SALMONELLA TYPHIMURIUM, Strain/Indicator: TA98, Metabolic Activation: MOUSE, LIVER, S-9, PCB, Method: PREINCUBATION",inactive; negative
same,mutagenic call,"Test System: AMES SALMONELLA TYPHIMURIUM, Strain/Indicator: TA98, Metabolic Activation: NONE, Method: PREINCUBATION",inactive; negative
same,mutagenic call,"Test System: AMES SALMONELLA TYPHIMURIUM, Strain/Indicator: TA98, Metabolic Activation: NONE, Method: STANDARD PLATE",inactive; negative
same,mutagenic call,"Test System: AMES SALMONELLA TYPHIMURIUM, Strain/Indicator: TA98, Metabolic Activation: RAT, LIVER, S-9, AROCLOR 1254 (10%), Method: PREINCUBATION",inactive; negative
same,mutagenic call,"Test System: AMES SALMONELLA TYPHIMURIUM, Strain/Indicator: TA98, Metabolic Activation: RAT, LIVER, S-9, AROCLOR 1254 (30%), Method: PREINCUBATION",inactive; negative
same,mutagenic call,"Test System: AMES SALMONELLA TYPHIMURIUM, Strain/Indicator: TA98, Metabolic Activation: RAT, LIVER, S-9, AROCLOR 1254, Method: STANDARD PLATE",inactive; negative
same,mutagenic call,"Test System: AMES SALMONELLA TYPHIMURIUM, Strain/Indicator: TA98, Metabolic Activation: RAT, LIVER, S-9, PCB, Method: PREINCUBATION",inactive; negative
same,mutagenic call,"Test System: AMES SALMONELLA TYPHIMURIUM, Strain/Indicator: TA98, Metabolic Activation: RAT, LIVER, S-9, PCB, Method: STANDARD PLATE",inactive; negative
same,mutagenic call,"Test System: AMES SALMONELLA TYPHIMURIUM, Strain/Indicator: TA100, Metabolic Activation: GUINEA PIG, LIVER, S-9, PCB, Method: PREINCUBATION",inactive; negative
same,mutagenic call,"Test System: AMES SALMONELLA TYPHIMURIUM, Strain/Indicator: TA100, Metabolic Activation: HAMSTER, LIVER, S-9, AROCLOR 1254 (10%), Method: PREINCUBATION",inactive; negative
same,mutagenic call,"Test System: AMES SALMONELLA TYPHIMURIUM, Strain/Indicator: TA100, Metabolic Activation: HAMSTER, LIVER, S-9, AROCLOR 1254 (30%), Method: PREINCUBATION",inactive; negative
same,mutagenic call,"Test System: AMES SALMONELLA TYPHIMURIUM, Strain/Indicator: TA100, Metabolic Activation: HAMSTER, LIVER, S-9, AROCLOR 1254, Method: STANDARD PLATE",inactive; negative
same,mutagenic call,"Test System: AMES SALMONELLA TYPHIMURIUM, Strain/Indicator: TA100, Metabolic Activation: HAMSTER, LIVER, S-9, PCB, Method: PREINCUBATION",inactive; negative
same,mutagenic call,"Test System: AMES SALMONELLA TYPHIMURIUM, Strain/Indicator: TA100, Metabolic Activation: MOUSE, LIVER, S-9, AROCLOR 1254, Method: STANDARD PLATE",inactive; negative
same,mutagenic call,"Test System: AMES SALMONELLA TYPHIMURIUM, Strain/Indicator: TA100, Metabolic Activation: MOUSE, LIVER, S-9, PCB, Method: PREINCUBATION",inactive; negative
same,mutagenic call,"Test System: AMES SALMONELLA TYPHIMURIUM, Strain/Indicator: TA100, Metabolic Activation: NONE, Method: PREINCUBATION",inactive; negative
same,mutagenic call,"Test System: AMES SALMONELLA TYPHIMURIUM, Strain/Indicator: TA100, Metabolic Activation: NONE, Method: STANDARD PLATE",inactive; negative
same,mutagenic call,"Test System: AMES SALMONELLA TYPHIMURIUM, Strain/Indicator: TA100, Metabolic Activation: RAT, LIVER, S-9, AROCLOR 1254 (10%), Method: PREINCUBATION",inactive; negative
same,mutagenic call,"Test System: AMES SALMONELLA TYPHIMURIUM, Strain/Indicator: TA100, Metabolic Activation: RAT, LIVER, S-9, AROCLOR 1254 (30%), Method: PREINCUBATION",inactive; negative
same,mutagenic call,"Test System: AMES SALMONELLA TYPHIMURIUM, Strain/Indicator: TA100, Metabolic Activation: RAT, LIVER, S-9, AROCLOR 1254, Method: STANDARD PLATE",inactive; negative
same,mutagenic call,"Test System: AMES SALMONELLA TYPHIMURIUM, Strain/Indicator: TA100, Metabolic Activation: RAT, LIVER, S-9, PCB, Method: PREINCUBATION",inactive; negative
same,mutagenic call,"Test System: AMES SALMONELLA TYPHIMURIUM, Strain/Indicator: TA100, Metabolic Activation: RAT, LIVER, S-9, PCB, Method: STANDARD PLATE",inactive; negative
same,mutagenic call,"Test System: AMES SALMONELLA TYPHIMURIUM, Strain/Indicator: TA1535, Metabolic Activation: HAMSTER, LIVER, S-9, AROCLOR 1254 (10%), Method: PREINCUBATION",inactive; negative
same,mutagenic call,"Test System: AMES SALMONELLA TYPHIMURIUM, Strain/Indicator: TA1535, Metabolic Activation: HAMSTER, LIVER, S-9, AROCLOR 1254 (30%), Method: PREINCUBATION",inactive; negative
same,mutagenic call,"Test System: AMES SALMONELLA TYPHIMURIUM, Strain/Indicator: TA1535, Metabolic Activation: HAMSTER, LIVER, S-9, AROCLOR 1254, Method: STANDARD PLATE",inactive; negative
same,mutagenic call,"Test System: AMES SALMONELLA TYPHIMURIUM, Strain/Indicator: TA1535, Metabolic Activation: MOUSE, LIVER, S-9, AROCLOR 1254, Method: STANDARD PLATE",inactive; negative
same,mutagenic call,"Test System: AMES SALMONELLA TYPHIMURIUM, Strain/Indicator: TA1535, Metabolic Activation: NONE, Method: PREINCUBATION",inactive; negative
same,mutagenic call,"Test System: AMES SALMONELLA TYPHIMURIUM, Strain/Indicator: TA1535, Metabolic Activation: NONE, Method: STANDARD PLATE",inactive; negative
same,mutagenic call,"Test System: AMES SALMONELLA TYPHIMURIUM, Strain/Indicator: TA1535, Metabolic Activation: RAT, LIVER, S-9, AROCLOR 1254 (10%), Method: PREINCUBATION",inactive; negative
same,mutagenic call,"Test System: AMES SALMONELLA TYPHIMURIUM, Strain/Indicator: TA1535, Metabolic Activation: RAT, LIVER, S-9, AROCLOR 1254 (30%), Method: PREINCUBATION",inactive; negative
same,mutagenic call,"Test System: AMES SALMONELLA TYPHIMURIUM, Strain/Indicator: TA1535, Metabolic Activation: RAT, LIVER, S-9, AROCLOR 1254, Method: STANDARD PLATE",inactive; negative
same,mutagenic call,"Test System: AMES SALMONELLA TYPHIMURIUM, Strain/Indicator: TA1537, Metabolic Activation: HAMSTER, LIVER, S-9, AROCLOR 1254, Method: STANDARD PLATE",inactive; negative
same,mutagenic call,"Test System: AMES SALMONELLA TYPHIMURIUM, Strain/Indicator: TA1537, Metabolic Activation: MOUSE, LIVER, S-9, AROCLOR 1254, Method: STANDARD PLATE",inactive; negative
same,mutagenic call,"Test System: AMES SALMONELLA TYPHIMURIUM, Strain/Indicator: TA1537, Metabolic Activation: NONE, Method: STANDARD PLATE",inactive; negative
same,mutagenic call,"Test System: AMES SALMONELLA TYPHIMURIUM, Strain/Indicator: TA1537, Metabolic Activation: RAT, LIVER, S-9, AROCLOR 1254, Method: STANDARD PLATE",inactive; negative
same,mutagenic call,"Test System: AMES SALMONELLA TYPHIMURIUM, Strain/Indicator: TA1537, Metabolic Activation: RAT, LIVER, S-9, PCB, Method: STANDARD PLATE",inactive; negative
same,mutagenic call,"Test System: AMES SALMONELLA TYPHIMURIUM, Strain/Indicator: TA1538, Metabolic Activation: HAMSTER, LIVER, S-9, AROCLOR 1254, Method: STANDARD PLATE",inactive; negative
same,mutagenic call,"Test System: AMES SALMONELLA TYPHIMURIUM, Strain/Indicator: TA1538, Metabolic Activation: MOUSE, LIVER, S-9, AROCLOR 1254, Method: STANDARD PLATE",inactive; negative
same,mutagenic call,"Test System: AMES SALMONELLA TYPHIMURIUM, Strain/Indicator: TA1538, Metabolic Activation: NONE, Method: STANDARD PLATE",inactive; negative
same,mutagenic call,"Test System: AMES SALMONELLA TYPHIMURIUM, Strain/Indicator: TA1538, Metabolic Activation: RAT, LIVER, S-9, AROCLOR 1254, Method: STANDARD PLATE",inactive; negative
same,mutagenic call,"Test System: AMES SALMONELLA TYPHIMURIUM, Strain/Indicator: TA1538, Metabolic Activation: RAT, LIVER, S-9, PCB, Method: STANDARD PLATE",inactive; negative
same,mutagenic call,"Test System: E. COLI, Strain/Indicator: WP2 UVRA, Metabolic Activation: HAMSTER, LIVER, S-9, AROCLOR 1254, Method: STANDARD PLATE",inactive; negative
same,mutagenic call,"Test System: E. COLI, Strain/Indicator: WP2 UVRA, Metabolic Activation: HAMSTER, LIVER, S-9, Method: STANDARD PLATE",inactive; negative
same,mutagenic call,"Test System: E. COLI, Strain/Indicator: WP2 UVRA, Metabolic Activation: MOUSE, LIVER, S-9, AROCLOR 1254, Method: STANDARD PLATE",inactive; negative
same,mutagenic call,"Test System: E. COLI, Strain/Indicator: WP2 UVRA, Metabolic Activation: MOUSE, LIVER, S-9, Method: STANDARD PLATE",inactive; negative
same,mutagenic call,"Test System: E. COLI, Strain/Indicator: WP2 UVRA, Metabolic Activation: NONE, Method: STANDARD PLATE",inactive; negative
same,mutagenic call,"Test System: E. COLI, Strain/Indicator: WP2 UVRA, Metabolic Activation: RAT, LIVER, S-9, AROCLOR 1254, Method: STANDARD PLATE",inactive; negative
same,mutagenic call,"Test System: E. COLI, Strain/Indicator: WP2 UVRA, Metabolic Activation: RAT, LIVER, S-9, PCB, Method: STANDARD PLATE",inactive; negative
same,mutagenic call,"Test System: E. COLI, Strain/Indicator: WP2 UVRA, Metabolic Activation: RAT, LIVER, S-9, Method: STANDARD PLATE",inactive; negative

# From PubChem BioAssay AID1259407 (Chemical Carcinogenesis Research Information System (CCRIS), 2018)
